# ChEMBL document CHEMBL5365411, “Synthesis of 1-(4-(dimethylamino)phenyl)-3,4-diphenyl-1H-pyrrole-2,5-dione analogues and their anti-inflammatory activities in lipopolysaccharide-induced BV2 cells” (Bioorg Med Chem Lett, 2023)
# Activity calls are given as the source filed them. No cut-off for these calls is given here.
# Experiments:
# [1] = Cytotoxicity against LPS-induced mouse BV-2 cells assessed as cell viability at 20 uM incubated for 24 hrs by MTT assay relative to control; assay type: toxicity, cell-based; conditions: LPS-induced BV-2 cells, read-out: Activity
# [2] = test system: BV-2; test: Inhibition of LPS-induced NO release in mouse BV-2 cells at 20 uM incubated for 24 hrs by Griess assay relative to control; assay type: functional
# [3] = test system: BV-2; test: Inhibition of LPS-induced NO release in mouse BV-2 cells up to 100 uM incubated for 24 hrs by Griess assay; assay type: functional, cell-based
# [4] = test system: RAW264.7; test: Inhibition of LPS-induced NO release in mouse RAW264.7 cells at 15 uM incubated for 24 hrs by Griess assay relative to control; assay type: functional
# [5] = test system: BV-2; test: Inhibition of LPS-induced NO release in mouse BV-2 cells incubated for 24 hrs by Griess assay; assay type: functional, cell-based; conditions: for IC50: BV-2, 24 h
# [6] = Inhibition of LPS-induced ERK phosphorylation in mouse BV-2 cells pretreated for 30 mins followed by LPS stimulation by Western blot analysis; assay type: cell-based; conditions: dose 5-20 µM
# [7] = test system: BV-2; test: Anti-inflammatory activity against LPS-induced mouse BV-2 cells assessed as reduction in IL-6 mRNA expression pre-incubated for 1 hrs followed by LPS addition and measured after 6 hrs by RT-PCR method; assay type: functional, cell-based; conditions: dose 5-20 µM, time 7.0 hrs
# [8] = test system: BV-2; test: Anti-inflammatory activity against LPS-induced mouse BV-2 cells assessed as reduction in TNF-alpha mRNA expression pre-incubated for 1 hrs followed by LPS addition and measured after 6 hrs by RT-PCR method; assay type: functional, cell-based; conditions: dose 5-20 µM, time 7.0 hrs
# [9] = target: MAP kinase p38 (Mus musculus) (UniProt P47811+O08911+Q9WUI1+Q9Z1B7); test: Inhibition of LPS-induced p38 phosphorylation in mouse BV-2 cells pretreated for 30 mins followed by LPS stimulation by Western blot analysis; assay type: cell-based; conditions: dose 5-20 µM
# [10] = test system: BV-2; test: Inhibition of LPS-induced NFkappaB activation in mouse BV2 cells assessed as reduction in p65 phosphorylated protein expression level pre-incubated for 30 mins followed by LPS addition by Western blot analysis; assay type: cell-based; conditions: dose 5-20 µM
# [11] = test system: BV-2; test: Anti-inflammatory activity against LPS-induced mouse BV-2 cells assessed as reduction in COX-2 mRNA expression pre-incubated for 1 hrs followed by LPS addition and measured after 6 hrs by RT-PCR method; assay type: functional, cell-based; conditions: dose 5-20 µM, time 7.0 hrs
# [12] = test system: BV-2; test: Anti-inflammatory activity against LPS-induced mouse BV-2 cells assessed as reduction in iNOS mRNA expression pre-incubated for 1 hrs followed by LPS addition and measured after 6 hrs by RT-PCR method; assay type: functional, cell-based; conditions: dose 5-20 µM, time 7.0 hrs
# [13] = test system: BV-2; test: Anti-inflammatory activity against LPS-induced mouse BV-2 cells assessed as reduction in COX-2 protein expression pre-incubated for 1 hrs followed by LPS addition and measured after 18 hrs by Western blot analysis; assay type: functional, cell-based; conditions: dose 5-20 µM, time 19.0 hrs
# [14] = test system: BV-2; test: Anti-inflammatory activity against LPS-induced mouse BV-2 cells assessed as reduction in IL-1beta mRNA expression pre-incubated for 1 hrs followed by LPS addition and measured after 6 hrs by RT-PCR method; assay type: functional, cell-based; conditions: dose 5-20 µM, time 7.0 hrs
# [15] = test system: BV-2; test: Inhibition of LPS-induced NFkappaB activation in mouse BV2 cells assessed as reduction in IkappaBalpha phosphorylated protein expression level pre-incubated for 30 mins followed by LPS addition by Western blot analysis; assay type: cell-based; conditions: dose 5-20 µM
# [16] = test system: BV-2; test: Cytotoxicity against LPS-induced mouse BV-2 cells assessed as cell viability at 2.5 to 20 uM incubated for 24 hrs by MTT assay; assay type: toxicity, cell-based; conditions: bv-2, 24 h, dose 2.5-20 µM
# [17] = test system: BV-2; test: Anti-inflammatory activity against LPS-induced mouse BV-2 cells assessed as reduction in iNOS protein expression pre-incubated for 1 hrs followed by LPS addition and measured after 18 hrs by Western blot analysis; assay type: functional, cell-based; conditions: dose 5-20 µM, time 19.0 hrs
# [18] = target: c-Jun N-terminal kinase (Mus musculus) (UniProt Q91Y86+Q9WTU6+Q61831); test: Inhibition of LPS-induced JNK phosphorylation in mouse BV-2 cells pretreated for 30 mins followed by LPS stimulation by Western blot analysis; assay type: cell-based; conditions: dose 5-20 µM
# Chain of c-Jun N-terminal kinase (Mus musculus) (Q61831 whole entry, looked up): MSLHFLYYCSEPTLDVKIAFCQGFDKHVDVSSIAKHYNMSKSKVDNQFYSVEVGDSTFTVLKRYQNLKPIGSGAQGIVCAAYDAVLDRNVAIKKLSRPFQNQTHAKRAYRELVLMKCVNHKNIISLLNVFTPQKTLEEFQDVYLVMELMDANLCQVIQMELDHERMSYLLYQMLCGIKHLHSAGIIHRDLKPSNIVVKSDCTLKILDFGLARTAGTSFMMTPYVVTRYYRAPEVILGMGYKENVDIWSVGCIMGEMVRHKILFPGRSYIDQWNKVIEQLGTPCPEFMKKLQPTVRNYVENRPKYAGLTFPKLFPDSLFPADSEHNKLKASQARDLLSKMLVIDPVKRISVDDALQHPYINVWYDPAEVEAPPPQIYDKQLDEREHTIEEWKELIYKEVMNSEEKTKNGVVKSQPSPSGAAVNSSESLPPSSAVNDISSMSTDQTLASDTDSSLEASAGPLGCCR
# Chain of c-Jun N-terminal kinase (Mus musculus) (Q91Y86 whole entry, looked up): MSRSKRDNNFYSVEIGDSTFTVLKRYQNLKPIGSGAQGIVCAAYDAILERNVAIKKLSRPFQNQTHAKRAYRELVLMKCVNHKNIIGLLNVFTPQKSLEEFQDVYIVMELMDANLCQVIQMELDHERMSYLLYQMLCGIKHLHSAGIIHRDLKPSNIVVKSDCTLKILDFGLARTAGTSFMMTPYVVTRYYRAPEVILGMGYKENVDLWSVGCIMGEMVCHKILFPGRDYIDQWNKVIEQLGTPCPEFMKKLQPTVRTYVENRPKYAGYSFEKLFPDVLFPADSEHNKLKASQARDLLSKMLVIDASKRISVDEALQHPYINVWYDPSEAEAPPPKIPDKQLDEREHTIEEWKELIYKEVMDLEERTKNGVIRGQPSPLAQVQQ
# Chain of c-Jun N-terminal kinase (Mus musculus) (Q9WTU6 whole entry, looked up): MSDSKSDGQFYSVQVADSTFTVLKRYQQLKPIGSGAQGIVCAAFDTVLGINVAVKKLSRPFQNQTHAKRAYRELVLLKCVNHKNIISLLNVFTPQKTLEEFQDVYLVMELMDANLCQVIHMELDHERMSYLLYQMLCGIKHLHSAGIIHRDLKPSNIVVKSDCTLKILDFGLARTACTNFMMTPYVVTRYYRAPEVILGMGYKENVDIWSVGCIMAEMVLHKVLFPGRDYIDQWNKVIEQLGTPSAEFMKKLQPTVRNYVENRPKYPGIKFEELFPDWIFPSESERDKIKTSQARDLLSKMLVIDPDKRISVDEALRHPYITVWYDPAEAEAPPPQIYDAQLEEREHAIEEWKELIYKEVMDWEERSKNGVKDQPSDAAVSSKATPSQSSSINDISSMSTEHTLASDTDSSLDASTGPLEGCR
SMILES,"viability at 24 h, 20 µM [1] [%]",inhibition at 20 µM [2] [%],also measured
CC(C)(C)c1ccc(N2C(=O)C(c3ccccc3)=C(c3ccccc3)C2=O)cc1,100,18.4,
COc1ccc(N2C(=O)C(c3ccccc3)=C(c3ccccc3)C2=O)cc1,97.2,32.3,
O=C1C(c2ccccc2)=C(c2ccccc2)C(=O)N1c1ccc(Cl)cc1,93.9,16,
O=C1C(c2ccccc2)=C(c2ccccc2)C(=O)N1c1ccccc1,93.3,22.5,
N#Cc1ccc(N2C(=O)C(c3ccccc3)=C(c3ccccc3)C2=O)cc1,80,6.9,
O=C1C(c2ccccc2)=C(c2ccccc2)C(=O)N1c1ccc(C(F)(F)F)cc1,99.4,12.4,
Nc1ccc(N2C(=O)C(c3ccccc3)=C(c3ccccc3)C2=O)cc1,90.2,27.6,
O=C1CCC(N2C(=O)c3ccccc3C2=O)C(=O)N1 (centres undefined) [THALIDOMIDE],93.5,0,inhibition [3]: inactive; inhibition at 15 µM [4]: 15%
O=C1C(c2ccccc2)=C(c2ccccc2)C(=O)N1CCc1ccccc1,100,14.2,
O=C1C(c2ccccc2)=C(c2ccccc2)C(=O)N1c1ccc(F)cc1,100,10.3,
O=C1C(c2ccccc2)=C(c2ccccc2)C(=O)N1Cc1ccccc1,100,21.9,
O=C1CCC(N2C(=O)C(c3ccccc3)=C(c3ccccc3)C2=O)C(=O)N1 (centres undefined),98.5,10.2,IC50 [5]: > 50 µM
O=C1C(c2ccccc2)=C(c2ccccc2)C(=O)N1c1ccc(Br)cc1,95.7,11.5,
CC(C)(C)OC(=O)Nc1ccc(N2C(=O)C(c3ccccc3)=C(c3ccccc3)C2=O)cc1,97.1,39.6,
CN(C)c1ccccc1N1C(=O)C(c2ccccc2)=C(c2ccccc2)C1=O,100,81.6,IC50 [5]: 13.3 µM
CN(C)c1cccc(N2C(=O)C(c3ccccc3)=C(c3ccccc3)C2=O)c1,90.2,82.1,IC50 [5]: 12.7 µM
CN(C)c1ccc(N2C(=O)C(c3ccccc3)=C(c3ccccc3)C2=O)cc1,98.9,83.5,inhibition [6]: inactive; Activity [7]: Dose-Dependent Effect; Activity [8]: Dose-Dependent Effect; inhibition [9]: Dose-Dependent Effect; inhibition [10]: Dose-Dependent Effect; Activity [11]: Dose-Dependent Effect; Activity [12]: Dose-Dependent Effect; Activity [13]: Dose-Dependent Effect; Activity [14]: Dose-Dependent Effect; inhibition [5]: Dose-Dependent Effect; IC50 [5]: 7.1 µM; inhibition [15]: Dose-Dependent Effect; Activity [16]: Non-Toxic; Activity [17]: Dose-Dependent Effect; inhibition [18]: inactive
O=C1C(c2ccccc2)=C(c2ccccc2)C(=O)N1c1ccc([N+](=O)[O-])cc1,99.4,19.3,
Cc1ccc(N2C(=O)C(c3ccccc3)=C(c3ccccc3)C2=O)cc1,97.8,25.8,
O=C1C(c2ccccc2)=C(c2ccccc2)C(=O)N1c1ccc(I)cc1,100,22.5,
O=C1C(c2ccccc2)=C(c2ccccc2)C(=O)N1c1ccc(OC(F)(F)F)cc1,94.5,12.9,
O=C1C(c2ccccc2)=C(c2ccccc2)C(=O)N1c1ccc(N2CCCCC2)cc1,87.4,5.8,
